Results taken from patent publication US20210009959A1, “METHODS FOR ENHANCING OSTEOGENIC DIFFERENTIATION USING VITAMIN D” (priority 2019, published 2021).

How the values were obtained:
[1] = tested on: human adipose stem cells (hASCs); experiment: Osteogenic and angiogenic gene expression of hASCs in 3D PLGA/β-TCP scaffold, dynamic and static culture; format: cell-based
Method: In one embodiment, dynamic culture of pre-treated hASCs with calcitriol, using the modified perfusion bioreactor comprises the following steps. In one embodiment, the scaffolds are 3D PLGA/β-TCP. The modified perfusion bioreactor […] comprises five scaffolds, loaded with a total of 70 ml of culture medium as shown in FIG. 2. At another step, 30 ml of the culture medium is replaced twice a week for a total period of two weeks. At another step, the culture medium in the modified perfusion bioreactor 200 is distributed to the five scaffolds with the flow rate of about 5 ml/min using the peristaltic pump 202.
In one embodiment, the method of static culture of pre-treated hASCs is continued in a flask bioreactor with the same volume of culture medium utilized in the dynamic culture. Further, the methods of culturing the hASCs are divided into different groups. In one embodiment, the methods of culturing of hASCs are divided into four groups such as, static culture of non-treated hASCs, static culture of pre-treated hASCs with calcitriol, dynamic culture of non-treated hASCs and dynamic culture of pre-treated hASCs with calcitriol.
Referring to FIGS. 11A to 11I, the effects of perfusion culture of hASCs on osteogenic and angiogenic differentiation of hASCs are disclosed, where the hASCs are seeded in 3D PLGA/β-TCP scaffold. In one embodiment, the hASCs are pre-treated with or without 10 nM of calcitriol for 30 minutes and cultured in the modified perfusion bioreactor (dynamic culture) and flask bioreactor (static culture).

[2] = tested on: human adipose stem cells (hASCs); experiment: Osteogenic gene expression of hASCs seeded on BCP20/80 scaffold; format: cell-based; settings: for RUNX2 gene expression, increase: 30 min incubation
Method: In one embodiment, a method of static culture of hASCs by pre-treatment with vitamin D3 (calcitriol) and attachment of hASCs to the scaffold used in one-step surgical procedure comprises the following steps. At one step, isolating hASCs as explained in FIG. 1. In an embodiment, the hASCs from three donors at passage 3 are used for further processing. As an optional step, the obtained hASCs are either or not incubated for a period of about 30 mins with low concentrated calcitriol of about 10 nM at room temperature.
At next step, the calcitriol treated hASCs are washed twice with Phosphate Buffered Saline (PBS) to remove calcitriol. Further, the washed hASCs are centrifuged and resuspended in Dulbecco's Minimum Essential Medium (DMEM) without any supplements. At another step, the resuspended cells are seeded on the scaffold and allowed to attach to the scaffolds for a period of about 30 minutes. At next step, the scaffolds with attached cells are transferred to 12-well plates with Costar® Transwell® containers (Corning Life Sciences, Lowell, Mass., USA) containing expansion medium (DMEM) supplemented with 10% Fetal Clone I (FCI), antibiotics (1% penicillin/streptomycin/fungizone (PSF)), 50 μM ascorbic acid (Merck, Darmstadt, Germany), and 10 mM β-glycerol phosphate (Merck, Darmstadt, Germany) (PLGA/β-TCP). At next step, the hASCs seeded scaffolds are incubated at 5% CO2 in a humidified incubator at predefined temperature of about 37° C. for a period of about 3 weeks.
Referring to FIGS. 8A to 8I, the effects of short and long calcitriol treatment on osteogenic gene expression of hASCs is disclosed, where hASCs are seeded in BCP scaffold. The stimulatory effect of 30 min calcitriol on osteogenic gene expression in hASCs seeded on BCP20/80 at day 21 is more noticeable than continuous calcitriol treatment. The 30 mins incubation with calcitriol increases the RUNX2 (early osteogenic marker) gene expression in hASCs by 3.6-fold after 2 weeks, and 5.7-fold after 3 weeks of culture compared to non-treated hASCs. FIGS. 8A to 8I exemplarily illustrate the effects of calcitriol treatment on osteogenic gene expression of hASCs.
The 30 minutes pre-treatment of hASCs with calcitriol increases VEGF189 gene expression, whereas in continuous calcitriol treatment, the VEGF189 gene expression reaches almost steady expression levels during the 3 weeks of culture. The VEGF189 gene expression in 30 minutes calcitriol pre-treated hASCs is increased by 1.5-fold at day 21, but it is decreased in continuous treatment by 0.6-fold compared to non-treated hASCs as shown in FIG. 8I.

[3] = 14 days, perfusion culture of pre-treated vs perfusion culture of non-treated hASCs
[4] = 14 days, perfusion culture of pre-treated vs static culture of pre-treated hASCs
[5] = day 7, dynamic culture of pre-treated vs perfusion culture of non-treated hASCs
[6] = day 7, dynamic culture of pre-treated vs static culture of treated hASC
[7] = continuous treatment, 3 weeks of culture

SMILES: C=C1/C(=C\C=C2/CCC[C@]3(C)[C@@H]([C@H](C)CCCC(C)(C)O)CC[C@@H]23)C[C@@H](O)C[C@@H]1O [calcitriol, 1,25-dihydroxyvitamin D3]
- CYP27B1 gene expression, increase [1, 3]: 5.3 fold
- Endotelin-1 gene expression, increase [1, 3]: 4 fold
- Ki-67 gene expression, increase [1, 3]: 1.8 fold
- OCN gene expression, increase [1, 3]: 2.1 fold
- RUNX2 gene expression, increase [1, 3]: 6.4 fold
- SPARC gene expression, increase [1, 3]: 2.8 fold
- VEGF165 gene expression, increase [1, 3]: 3.1 fold
- VEGF189 gene expression, increase [1, 3]: 2.5 fold
- CYP27B1 gene expression, increase [1, 4]: 15.4 fold
- Endotelin-1 gene expression, increase [1, 4]: 35 fold
- Ki-67 gene expression, increase [1, 4]: 5.1 fold
- OCN gene expression, increase [1, 4]: 4.1 fold
- OPN gene expression, increase [1, 4]: 60 fold
- RUNX2 gene expression, increase [1, 4]: 82.8 fold
- SPARC gene expression, increase [1, 4]: 33.2 fold
- VEGF165 gene expression, increase [1, 4]: 1.4 fold
- VEGF189 gene expression, increase [1, 4]: 5.7 fold
- OPN gene expression (level) ([1]; day 7, dynamic culture of pre-treated hASC): 0.1084
- Endotelin-1 gene expression, increase [1, 5]: 120.9 fold
- Ki-67 gene expression, increase [1, 5]: 45.9 fold
- OCN gene expression, increase [1, 5]: 1.8 fold
- RUNX2 gene expression, increase [1, 5]: 186.5 fold
- SPARC gene expression, increase [1, 5]: 3 fold
- VEGF165 gene expression, increase [1, 5]: 3 fold
- VEGF189 gene expression, increase [1, 5]: 3.4 fold
- Endotelin-1 gene expression, increase [1, 6]: 5.4 fold
- OCN gene expression, increase [1, 6]: 7.1 fold
- OPN gene expression, increase [1, 6]: 47.3 fold
- SPARC gene expression, increase [1, 6]: 7.5 fold
- VEGF165 gene expression, increase [1, 6]: 9.8 fold
- VEGF189 gene expression, increase [1, 6]: 8.8 fold
- OPN gene expression (level) ([1]; day 7, static culture of treated hASC): 0.002291
- ALP gene expression ([2]; 30 min calcitriol, BCP20/80): upregulates
- RUNX2 gene expression, increase ([2]; after 2 weeks, vs non-treated hASCs): 3.6 fold
- RUNX2 gene expression, increase ([2]; after 3 weeks, vs non-treated hASCs): 5.7 fold
- CYP24 gene expression ([2]; 30 min pre-treated cells): not expressed
- Ki-67 gene expression ([2]; 30 min pre-treatment, 3 weeks of culture): decreases
- VDR gene expression ([2]; 30 min pre-treatment, compared to continuous treatment, maximal stimulation at day 14): increases
- SPARC expression, increase ([2]; 30 min pre-treatment, day 14): 2.1 fold
- VEGF189 gene expression, increase ([2]; 30 min pre-treatment, day 21, vs non-treated hASCs): 1.5 fold
- OPN expression ([2]; 30 min treatment, day 21): increases
- CYP24 gene expression [2, 7]: remarkably increases
- Ki-67 gene expression [2, 7]: no change
- RUNX2 expression, decrease ([2]; continuous treatment, after 2 weeks): 0.81 fold
- RUNX2 expression, increase ([2]; continuous treatment, after 3 weeks): 2.4 fold
- OPN gene expression ([2]; continuous treatment, day 4): upregulates
- SPARC expression, decrease ([2]; continuous treatment, day 14): 0.8 fold
- VEGF189 gene expression, decrease ([2]; continuous treatment, day 21, vs non-treated hASCs): 0.6 fold
- DMP1 gene expression ([2]; over about 3 weeks, treatment group not specified): gradual and insignificant increase
